Data published in US6649379B1, “Method and deregulated enzyme for threonine production” (priority 1987, dated 2003).

Experiments:
homoserine dehydrogenase [1] = target: T1, homoserine dehydrogenase (Corynebacterium glutamicum, UniProt P08499); experiment: Homoserine dehydrogenase activity in crude cell extracts (initial decrease in absorbance at 340 nm by NADPH); assay type: biochemical, C. glutamicum
T1 construct: Crude cell lysates for homoserine dehydrogenase assays were prepared from 500 ml MMCG C. glutamicum AS019 and R102 cultures; endogenous in cells; host or cells: C. glutamicum AS019 and AS019E12/pMF33 (chromosomal wild-type hom); R102 (chromosomal hom^dr); AS019E12/pJD4 (plasmid-borne hom^dr beside chromosomal wild-type hom)
Method: Verified pJD4/AS019EI2 transformants were selected for the presence of the plasmid by growth on kanamycin supplemented mediums. The activity of the homoserine dehydrogenase from crude cell extracts of these cultures was determined in the presence and absence of L-threonine. A host cell encoding wild type homoserine dehydrogenase would be inactivated in the presence of 10 mM L-threonine. […] Therefore, homoserine dehydrogenase activity in the presence of L-threonine was derived from the cloned hom^dr gene. The specific activity of the deregulated homoserine dehydrogenase is approximately the same as that reported for the C. glutamicum chromosomal hom gene (0.0450 μM ml^−1min^1) The cloned hom^dr gene product was functional even in the presence of 120 mM L-threonine.
One ml of the supernatant from an overnight 10 ml MMCG culture of an alpha-hydroxy-valerate tolerant C. glutamicum isolate was filter sterilized and added 1:10 to a fresh 10 ml MMCG medium. […] Growth of AS155 was determined by densitometry after a 24 hour incubation at 30° C. […] The activity of homoserine dehydrogenase in crude cell extracts of C. glutamicum R102 and AS019 in the presence of both threonine and alpha-hydroxy-valerate was measured. […] Homoserine dehydrogenase activity was assayed by determining the initial decrease in the absorbance at 340 nm by NADPH as described by Follettie et al., Mol. Microbiol. […]

[2] = target: T2, homoserine dehydrogenase enzyme of C. glutamicum (Corynebacterium glutamicum, UniProt P08499); conditions: threonine inhibition of C. glutamicum homoserine dehydrogenase; read-out: inhibition rate constant (Ki); cited from earlier work
T2 sequence (P08499 1-445): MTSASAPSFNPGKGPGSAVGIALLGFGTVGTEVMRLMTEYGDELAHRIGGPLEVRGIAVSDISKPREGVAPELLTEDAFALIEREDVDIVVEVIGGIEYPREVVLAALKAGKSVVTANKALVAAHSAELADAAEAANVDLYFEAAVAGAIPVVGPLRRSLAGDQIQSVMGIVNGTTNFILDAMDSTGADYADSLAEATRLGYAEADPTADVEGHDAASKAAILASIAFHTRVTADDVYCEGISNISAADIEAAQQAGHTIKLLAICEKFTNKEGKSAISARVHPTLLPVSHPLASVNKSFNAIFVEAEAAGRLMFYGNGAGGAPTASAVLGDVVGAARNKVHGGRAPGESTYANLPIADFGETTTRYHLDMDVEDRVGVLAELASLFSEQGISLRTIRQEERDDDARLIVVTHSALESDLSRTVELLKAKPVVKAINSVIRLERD

homoserine dehydrogenase [3] = target: T3, homoserine dehydrogenase (Corynebacterium glutamicum, UniProt P08499); parameters: specific activity reported for the C. glutamicum chromosomal hom gene: unit not given here; conditions: reported value, cited from earlier work
T3 construct: Crude cell lysates for homoserine dehydrogenase assays were prepared from 500 ml MMCG C. glutamicum AS019 and R102 cultures; endogenous in cells; host or cells: C. glutamicum AS019 and AS019E12/pMF33 (chromosomal wild-type hom); R102 (chromosomal hom^dr); AS019E12/pJD4 (plasmid-borne hom^dr beside chromosomal wild-type hom)
T3 sequence (P08499 whole entry, looked up): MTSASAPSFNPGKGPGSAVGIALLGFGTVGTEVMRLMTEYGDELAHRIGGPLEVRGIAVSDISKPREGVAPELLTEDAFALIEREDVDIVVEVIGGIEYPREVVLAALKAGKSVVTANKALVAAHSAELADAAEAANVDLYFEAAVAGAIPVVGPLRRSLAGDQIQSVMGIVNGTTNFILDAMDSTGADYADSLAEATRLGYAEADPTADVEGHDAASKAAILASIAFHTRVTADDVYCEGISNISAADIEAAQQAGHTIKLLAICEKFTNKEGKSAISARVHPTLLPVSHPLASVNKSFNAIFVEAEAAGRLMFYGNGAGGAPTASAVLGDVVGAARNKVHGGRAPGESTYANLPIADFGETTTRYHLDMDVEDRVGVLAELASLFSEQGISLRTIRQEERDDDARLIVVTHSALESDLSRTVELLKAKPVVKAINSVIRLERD

Molecule | effect of 10 mM L-threonine on wild type homoserine dehydrogenase (homoserine dehydrogenase [1]) | Ki [2] [µM] | specific activity reported for the C. glutamicum chromosomal hom gene (homoserine dehydrogenase [3]) | specific activity reported for wild type (homoserine dehydrogenase [3]; wild type homoserine dehydrogenase) [μM ml^−1min^−1]
C[C@@H](O)[C@H](N)C(=O)O [L-threonine] | inactivate | 160 | – | –
wild type: wild type C. glutamicum homoserine dehydrogenase (SEQ ID NO:2) (protein) MTSASAPSFNPGKGPGSAVGIALLGFGTVGTEVMRLMTEYGDELAHRIGGPLEVRGIAVSDISKPREGVAPELLTEDAFALIEREDVDIVVEVIGGIEYPREVVLAALKAGKSVVTANKALVAAHSAELADAAEAANVDLYFEAAVAGAIPVVGPLRRSLAGDQIQSVMGIVNGTTNFILDAMDSTGADYADSLAEATRLGYAEADPTADVEGHDAASKAAILASIAFHTRVTADDVYCEGISNISAADIEAAQQAGHTIKLLAICEKFTNKEGKSAISARVHPTLLPVSHPLASVNKSFNAIFVEAEAAGRLMFYGNGAGGAPTASAVLGDVVGAARNKVHGGRAPGESTYANLPIADFGETTTRYHLDMDVEDRVGVLAELASLFSEQGISLRTIRQEERDDDARLIVVTHSALESDLSRTVELLKAKPVVKAINSVIRLERD | – | – | 0.0450 | 0.0450
